Assay results reported in article PMC7400623, “Effect of lysine side chain length on histone lysine acetyltransferase catalysis” (Scientific Reports, 2020).

What was measured:
MOF (KAT8) = target: T1, MOF (KAT8) (Homo sapiens, UniProt Q9H7Z6); assay: MALDI-TOF MS enzymatic assay of MOF-catalyzed acetylation of histone peptides; format: biochemical; conditions: 100 µM peptide, 300 µM AcCoA, pH 8.0, 37 °C; for acetylation (conversion to acetylated peptide) by MOF: after 3 h, 2 µM MOF, 50 mM Hepes, 0.1 mM EDTA, 1 mM DTT, MALDI-TOF MS
T1 construct: Human MOF catalytic domain (residues 125–458 in pET19b); His-tag; made in house; host or cells: E. coli BL21(DE3)
T1 sequence (Q9H7Z6 125-458): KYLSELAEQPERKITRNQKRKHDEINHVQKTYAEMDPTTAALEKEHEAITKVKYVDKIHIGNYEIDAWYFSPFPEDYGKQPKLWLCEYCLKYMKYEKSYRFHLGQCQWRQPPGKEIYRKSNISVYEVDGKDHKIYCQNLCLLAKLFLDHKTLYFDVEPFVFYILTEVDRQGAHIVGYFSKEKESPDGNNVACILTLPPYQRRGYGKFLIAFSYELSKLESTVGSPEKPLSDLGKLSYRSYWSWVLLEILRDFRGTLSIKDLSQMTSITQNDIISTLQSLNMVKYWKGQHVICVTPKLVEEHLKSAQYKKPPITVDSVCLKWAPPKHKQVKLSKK
Protocol: MALDI-TOF MS enzymatic assays were carried out to investigate KAT-catalyzed acetylation of synthetic histone peptides. The enzymatic activity of the recombinantly expressed human KATs was measured at different time points (2 µM KAT enzyme, 100 µM histone peptide, 300 µM AcCoA, buffer: 50 mM Hepes, 0.1 mM EDTA, 1 mM DTT, pH = 8.0, 37 °C, hereafter used as standard conditions) (Fig. 3b,c). […] It is noteworthy that diacetylation of histone peptides was not detected under our assay conditions, due to preacetylation of the secondary site on H3. […] As further control, H4 and H3 peptides containing stereochemically inverted D-lysine were synthesized.
The KAT enzymatic activity towards histone peptides was measured at different time points under standard conditions (2 µM KAT enzyme, 100 µM peptide, 300 µM AcCoA) in the reaction buffer (50 mM HEPES, 0.1 mM EDTA, 1 mM DTT, pH = 8.0). The reactions were carried out in a final volume of 50 µL and shaken up in a Thermomixer C at 750 rpm, at 37 °C. The reactions were quenched by the addition of TFA 10% in MilliQ water at different time points. All reactions were aliquoted and mixed 1:2 with a solution of α-Cyano-4-hydroxycinnamic acid (CHCCA) in 1:1 MQ and ACN (0.1% TFA) and loaded onto an MTP 384 polished steel target to be analyzed by a UltrafleXtreme-II tandem mass spectrometer (Bruker, Billerica, MA, USA).

MOF catalytic domain = target: T2, MOF catalytic domain (Homo sapiens, UniProt Q9H7Z6); assay: MALDI-TOF MS kinetics assay, MOF; format: biochemical; conditions: for kcat^app / Km: MOF catalytic domain 570 nM (2 µM for unnatural analogs), peptide 1,050–0 µM, pH 7.4, 37 °C, MALDI-TOF MS, duplicates, value ± SD, SD; for kcat^app: AcCoA 100 µM (saturating), 50 mM HEPES, 0.1 mM EDTA, 0.01% TRITON-X; for Km: AcCoA 100 µM, read-out: Km^app; for kcat^app/Km^app: same kinetics conditions
T2 construct: Human MOF catalytic domain (residues 125–458 in pET19b); His-tag; made in house; host or cells: E. coli BL21(DE3)
T2 sequence (Q9H7Z6 125-458): T1 sequence (Q9H7Z6 125-458)
Text: Kinetic analysis of bi-substrate enzymes, such as KATs, is reckoned to be challenging and dependent on many factors. Firstly, given the nature of these enzymes, the binding of one of the two substrates directly influences the binding of the other (with a direct effect on the Michaelis–Menten parameter Km). […] Therefore, to obtain data that would allow us to directly compare the catalytic properties of the selected KATs towards our selection of histone peptides bearing lysine analogs with longer side chains, two strategies to standardize our kinetic evaluation were taken: i) all the experiments were carried out with the same saturating concentrations of AcCoA and ii) only KATs catalytic domains were employed in the study. […] In contrast, kcat values decreased substantially with an increase of the side chain length, both in the K14 and K9 peptide series, and for both PCAF and GCN5 (Table 1).
Histone peptides kinetics evaluation was carried out with a MALDI-TOF MS assay under steady-state conditions[57],[58]. Histone peptides (1,050–0 µM) were incubated with AcCoA (100 µM) and the reactions were started by the addition of the enzyme (MOF 570 nM, PCAF and GCN5 50 nM) in a final volume of 20 µL in kinetic buffer (50 mM HEPES, 0.1 mM EDTA, 0.01% TRITON-X, pH = 7.4). For histone peptides bearing unnatural lysine analogs, higher concentration of enzymes was used (MOF, PCAF and GCN5 2 µM). […] AcCoA stock solutions in milli-Q water were calibrated with a NanoDrop 2000 spectrophotometer (Thermo Scientific, Waltham, MA, USA), employing the characteristic molar extinction coefficient ε260nm = 16,400 M^−1 cm^−1. Reactions were incubated at 37 °C, shaken at 750 rpm and quenched with TFA 10% in milli-Q water at different time points, within linear production of acetylated peptides extrapolated from time-course plots. All reactions were aliquoted and mixed 1:2 with a solution of α-cyano-4-hydroxycinnamic acid (CHCCA) in 1:1 MQ and ACN (0.1% TFA) and loaded onto MTP 384 polished steel target to be analyzed by UltrafleXtreme-II tandem mass spectrometer (Bruker). The amount of acetylated peptide was calculated by integration of the product peak area and divided it by the amount of unacetylated peptide, taking in account all the ionic species, at any concentration points using the FlexAnalysis software. Kinetic values were extrapolated by fitting V0 values (µM of produced peptide per minutes) and histone peptide concentrations to the Michaelis–Menten equation using the GraphPad Prism 5 software. Kinetic experiments were carried out in duplicates and final values are reported as value ± SD.

Sequence	time to full acetylation by MOF (MOF (KAT8); standard conditions: 2 µM MOF) [min]	kcat^app (MOF catalytic domain) [s⁻¹]	Km (MOF catalytic domain) [µM]	kcat^app/Km^app (MOF catalytic domain; MOF) [M⁻¹ s⁻¹]	acetylation (conversion to acetylated peptide) by MOF (MOF (KAT8)) [%]	Km lower than that of H4hK16 (MOF catalytic domain; MOF)
GGA K16 RHRKVLRDNIQ [H4K16, reference compound]	30	0.385 ± 0.0167	593 ± 86	648		
GGA h2K16 RHRKVLRDNIQ [H4h2K16, 15-mer histone H4 peptide with h2K at position 16]		0.001 ± 0.00017	82.2 ± 15	12	90	fourfold lower
GGA hK 16 RHRKVLRDNIQ [H4hK16, 15-mer histone H4 peptide with hLys at position 16]		0.0045 ± 0.0017	344 ± 99	13	95	
